Measured values from US20180057507A1, “INHIBITORS OF DUAL LEUCINE ZIPPER (DLK) KINASE FOR THE TREATMENT OF DISEASE” (Board of Regents, The University of Texas System, priority 2016, published 2018).

Columns and labels:
[1] = target: T1, human DLK (Homo sapiens, UniProt Q12852); test: DLK Kd Determinations (KINOMEscan KdELECT, DiscoveRx); parameters: full length of human DLK (amino acids 1-859); host or cells: transiently transfected HEK293 cells; unpurified extract; settings: fusion protein of full length human DLK (amino acids 1-859) and NFkB DNA binding domain; qPCR readout; duplicate
T1 sequence (Q12852 1-859): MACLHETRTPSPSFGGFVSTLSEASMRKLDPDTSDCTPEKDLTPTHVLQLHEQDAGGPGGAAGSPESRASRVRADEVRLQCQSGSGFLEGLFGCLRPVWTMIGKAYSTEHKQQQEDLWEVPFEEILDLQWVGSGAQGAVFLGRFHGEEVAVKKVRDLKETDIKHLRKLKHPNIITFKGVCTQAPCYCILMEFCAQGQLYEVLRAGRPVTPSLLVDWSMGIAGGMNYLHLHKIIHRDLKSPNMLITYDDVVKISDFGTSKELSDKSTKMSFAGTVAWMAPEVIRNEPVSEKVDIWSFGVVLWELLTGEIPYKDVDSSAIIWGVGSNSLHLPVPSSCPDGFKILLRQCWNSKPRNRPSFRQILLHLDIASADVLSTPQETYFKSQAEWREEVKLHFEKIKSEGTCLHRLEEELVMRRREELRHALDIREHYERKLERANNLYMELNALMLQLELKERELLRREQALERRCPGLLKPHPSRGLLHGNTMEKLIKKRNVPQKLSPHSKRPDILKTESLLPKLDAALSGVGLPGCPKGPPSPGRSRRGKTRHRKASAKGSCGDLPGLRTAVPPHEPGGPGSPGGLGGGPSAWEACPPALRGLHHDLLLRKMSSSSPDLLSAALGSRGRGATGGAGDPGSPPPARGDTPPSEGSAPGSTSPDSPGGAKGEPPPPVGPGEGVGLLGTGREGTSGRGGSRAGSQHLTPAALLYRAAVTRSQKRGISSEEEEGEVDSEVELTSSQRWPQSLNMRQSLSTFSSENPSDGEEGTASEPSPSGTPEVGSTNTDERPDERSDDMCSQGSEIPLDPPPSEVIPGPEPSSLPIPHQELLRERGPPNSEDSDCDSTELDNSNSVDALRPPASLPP
Procedure, shortened: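 Competition binding of full-length human DLK (aa 1-859)-NFkB DBD fusion, DNA-tagged, from HEK293 extracts against an immobilized ligand; 1 h at room temperature, 0.9% DMSO. Bead-bound kinase was quantified by qPCR. Kd came from an 11-point 3-fold series (top 30,000 nM), in duplicate, with Hill slope fixed at −1.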

[2] = target: T1, human DLK; test: Phospho-cJun Cellular Assay; format: cell-based; parameters: expressed in transfected cells; settings: HEK293 cells stably transfected with Dox-inducible human DLK; p-cJun (Ser63); 5 h compound incubation
Procedure, shortened: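 HEK293 cells with doxycycline-induced human DLK (induced 20 h; uninduced cells as negative control) treated with compound for 5 h at 37 °C. Phospho-cJun (Ser63) measured in lysates with detection-antibody kit; IC50 from variable-slope dose-response fit.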

Kd [1] [nM] | IC50 [2] [nM] | Compound
4.5 | 346 | CC(C)Cc1nc(-c2cnc(N)c(C(F)(F)F)c2)cn1[C@H]1[C@@H]2CC(N3CCN(C)CC3)C[C@@H]21 (single isomer, unassigned) [Example 146b, 5-(2-isobutyl-1-(3-(4-methylpiperazin-1-yl)bicyclo[3.1.0]hexan-6-yl)-1H-imidazol-4-yl)-3-(trifluoromethyl)pyridin-2-amine]
18 | 550 | CCC(O)c1nc(-c2cnc(N)c(C(F)(F)F)c2)cn1C1CCC1 (stereo not drawn) [Example 22, 1-(4-(6-amino-5-(trifluoromethyl)pyridin-3-yl)-1-cyclobutyl-1H-imidazol-2-yl)propan-1-ol]
37 | 1350 | Nc1ncc(-c2cn([C@H]3[C@@H]4CC(N5CCN(CCF)CC5)C[C@@H]43)c(CC3CC3)n2)cc1OC(F)(F)F (single isomer, unassigned) [Example 152a, 5-(2-(cyclopropylmethyl)-1-(3-(4-(2-fluoroethyl)piperazin-1-yl)bicyclo[3.1.0]hexan-6-yl)-1H-imidazol-4-yl)-3-(trifluoromethoxy)pyridin-2-amine]
42 | 587 | Nc1ncc(-c2cn(C3CC4(CC(N5CCOCC5)C4)C3)c(C3CC3)n2)cc1C(F)(F)F (stereo not drawn) [Example 40, 5-(2-cyclopropyl-1-(6-morpholinospiro[3.3]heptan-2-yl)-1H-imidazol-4-yl)-3-(trifluoromethyl)pyridin-2-amine]
40 | 748 | Nc1ncc(-c2cn([C@H]3[C@@H]4CC(N5CCOCC5)C[C@@H]43)c(C3CC3)n2)cc1C(F)(F)F (single isomer, unassigned) [Example 128a, 5-(2-cyclopropyl-1-(3-morpholinobicyclo[3.1.0]hexan-6-yl)-1H-imidazol-4-yl)-3-(trifluoromethyl)pyridin-2-amine]
71 | 1850 | Nc1ncc(-c2cn([C@H]3[C@@H]4CN(C5CCOCC5)C[C@@H]43)c(CC(F)(F)F)n2)cc1C(F)(F)F [Example 119, 5-(1-((1R,5S,6s)-3-(tetrahydro-2H-pyran-4-yl)-3-azabicyclo[3.1.0]hexan-6-yl)-2-(2,2,2-trifluoroethyl)-1H-imidazol-4-yl)-3-(trifluoromethyl)pyridin-2-amine]
54 | 1090 | CN1CCN(C2C[C@@H]3[C@H](C2)[C@H]3n2cc(-c3cnc(N)c(OC(F)F)c3)nc2C2CC2)CC1 (stereo partly drawn) [Example 150, 5-(2-cyclopropyl-1-(3-(4-methylpiperazin-1-yl)bicyclo[3.1.0]hexan-6-yl)-1H-imidazol-4-yl)-3-(difluoromethoxy)pyridin-2-amine]
8.7 | 775 | CC(C)Cc1nc(-c2cnc(N)c(C(F)(F)F)c2)cn1[C@H]1[C@@H]2CC(N3CCN(CCF)CC3)C[C@@H]21 (single isomer, unassigned) [Example 160b, 5-(1-(3-(4-(2-fluoroethyl)piperazin-1-yl)bicyclo[3.1.0]hexan-6-yl)-2-isobutyl-1H-imidazol-4-yl)-3-(trifluoromethyl)pyridin-2-amine]
25 | 1760 | CC(C)c1nc(-c2cnc(N)c(C(F)(F)F)c2)cn1[C@H]1[C@@H]2CC(N3CCCOCC3)C[C@@H]21 (stereo partly drawn) [Example 130, 5-(1-(3-(1,4-oxazepan-4-yl)bicyclo[3.1.0]hexan-6-yl)-2-isopropyl-1H-imidazol-4-yl)-3-(trifluoromethyl)pyridin-2-amine]
28 | 761 | Nc1ncc(-c2cn([C@H]3[C@@H]4CC(N5CCN(CCF)CC5)C[C@@H]43)c(C3CC3)n2)cc1OC(F)(F)F (single isomer, unassigned) [Example 154a, 5-(2-cyclopropyl-1-(3-(4-(2-fluoroethyl)piperazin-1-yl)bicyclo[3.1.0]hexan-6-yl)-1H-imidazol-4-yl)-3-(trifluoromethoxy)pyridin-2-amine]
57 | 1900 | Nc1ncc(-c2cn([C@H]3[C@@H]4CN(C5CCOCC5)C[C@@H]43)c(CC3CC3)n2)cc1OC(F)(F)F [Example 97, 5-(2-(cyclopropylmethyl)-1-((1R,5S,6s)-3-(tetrahydro-2H-pyran-4-yl)-3-azabicyclo[3.1.0]hexan-6-yl)-1H-imidazol-4-yl)-3-(trifluoromethoxy)pyridin-2-amine]
22 | 891 | Nc1ncc(-c2cn([C@H]3[C@@H]4CC(N5CCN(CCF)CC5)C[C@@H]43)c(C3CC3)n2)cc1C(F)(F)F (single isomer, unassigned) [Example 153a, 5-(2-cyclopropyl-1-(3-(4-(2-fluoroethyl)piperazin-1-yl)bicyclo[3.1.0]hexan-6-yl)-1H-imidazol-4-yl)-3-(trifluoromethyl)pyridin-2-amine]
49 | 1550 | CC(C)Cc1nc(-c2cnc(N)c(OC(F)(F)F)c2)cn1[C@H]1[C@@H]2CC(N3CCN(CCF)CC3)C[C@@H]21 (single isomer, unassigned) [Example 159b, 5-(1-(3-(4-(2-fluoroethyl)piperazin-1-yl)bicyclo[3.1.0]hexan-6-yl)-2-isobutyl-1H-imidazol-4-yl)-3-(trifluoromethoxy)pyridin-2-amine]
51 | 760 | Nc1ncc(-c2cn([C@H]3[C@@H]4CN(C5CCOCC5)C[C@@H]43)c(CC3CC3)n2)cc1C(F)(F)F [Example 76, 5-(2-(cyclopropylmethyl)-1-((1R,5S,6s)-3-(tetrahydro-2H-pyran-4-yl)-3-azabicyclo[3.1.0]hexan-6-yl)-1H-imidazol-4-yl)-3-(trifluoromethyl)pyridin-2-amine]
13 | 738 | CC(C)Cc1nc(-c2cnc(N)c(C(F)(F)F)c2)cn1[C@H]1[C@@H]2CC(N3CCN(CCF)CC3)C[C@@H]21 (single isomer, unassigned) [Example 160a, 5-(1-(3-(4-(2-fluoroethyl)piperazin-1-yl)bicyclo[3.1.0]hexan-6-yl)-2-isobutyl-1H-imidazol-4-yl)-3-(trifluoromethyl)pyridin-2-amine]
25 | 1140 | CC(C)c1nc(-c2cnc(N)c(C(F)(F)F)c2)cn1C1CC2(CC(N3CCOCC3)C2)C1 (stereo not drawn) [Example 38, 5-(2-isopropyl-1-(6-morpholinospiro[3.3]heptan-2-yl)-1H-imidazol-4-yl)-3-(trifluoromethyl)pyridin-2-amine]
17 | 346 | CN1CCN(C2C[C@@H]3[C@H](C2)[C@H]3n2cc(-c3cnc(N)c(OC(F)(F)F)c3)nc2C2CC2)CC1 (stereo partly drawn) [Example 135, 5-(2-cyclopropyl-1-(3-(4-methylpiperazin-1-yl)bicyclo[3.1.0]hexan-6-yl)-1H-imidazol-4-yl)-3-(trifluoromethoxy)pyridin-2-amine]
34 | 1050 | Nc1ncc(-c2cn([C@H]3[C@@H]4CC(N5CCOCC5)C[C@@H]43)c(CC3CC3)n2)cc1C(F)(F)F (single isomer, unassigned) [Example 138b, 5-(2-(cyclopropylmethyl)-1-(3-morpholinobicyclo[3.1.0]hexan-6-yl)-1H-imidazol-4-yl)-3-(trifluoromethyl)pyridin-2-amine]
84 | 1590 | CC(C)c1nc(-c2cnc(N)c(C(F)(F)F)c2)cn1[C@H]1[C@@H]2CC(O)C[C@@H]21 (single isomer, unassigned) [Example 48a, 6-(4-(6-amino-5-(trifluoromethyl)pyridin-3-yl)-2-isopropyl-1H-imidazol-1-yl)bicyclo[3.1.0]hexan-3-ol]
32 | 834 | C[C@H]1COCCN1C1C[C@@H]2[C@H](C1)[C@H]2n1cc(-c2cnc(N)c(C(F)(F)F)c2)nc1C1CC1 (single isomer, unassigned) [Example 140a]
22 | 710 | CN1CCN(C2CC3C(C2)C3n2cc(-c3cnc(N)c(OC(F)F)c3)nc2C2CC2)CC1 (stereo not drawn) [Example 137, 5-(2-cyclopropyl-1-(3-(4-methylpiperazin-1-yl)bicyclo[3.1.0]hexan-6-yl)-1H-imidazol-4-yl)-3-(difluoromethoxy)pyridin-2-amine]
